According to US7655629B2, “Peptides and their use for the treatment of HIV infections” (priority 2002, dated 2010):
Positions of bridges follow the written chain, without caps; N, C: chain ends. Non-standard residues stand in square brackets, D forms with d. Residues, ends and D or L forms follow the SMILES beside them. Tic = O=C(O)[C@@H]1Cc2ccccc2CN1; dTic = O=C(O)[C@H]1Cc2ccccc2CN1

These compounds were tested on X4-tropic HIV-1 NL4-3. Conditions: read-out: IC50 NL4-3; P4-CCR5 cells, HIV-1 NL4-3, peptide 2 h before infection, readout three days after infection.
Text: These cells contain the β-galactosidase reporter gene under the control of the HIV-1 promoter. Thus, activation of the β-galactosidase reporter gene allows to measure the efficiency of HIV-1 infection and thus to quantitate the potency of HIV-1 inhibitors (Detheux M. et al., 2000; Journal of Experimental Medicine 192, 1501-1508; Münch et al., 2002; Antimicrobial Agents and Chemotherapy 46, 982-990).
To perform a typical infection assay, P4-CCR5 cells (Charneau et al., 1994; Journal of Molecular Biology 241, 651-662; Charneau et al., Virology. 1994 205, 247-53) were kept in RPMI 1640 medium supplemented with 10 volume % FCS. This cell line coexpresses CD4 and both HIV-1 coreceptors CCR5 and CXCR4 and contains the β-galactosidase gene under the control of the HIV-1 promoter. Virus stocks were generated by the calcium coprecipitation method as described (Detheux et al., J Exp Med. 192:1501-8; 2000), and the p24 antigen levels were quantitated with an HIV p24 ELISA kit obtained through the NIH AIDS Reagent Program. Cells were seeded in flat-bottomed 96-well dishes, cultured overnight, and incubated with the different doses of peptide for 2 h before infection with virus containing 1 ng of p24 antigen in a total volume of […] of medium. After overnight incubation, cells were washed twice and cultivated in fresh culture medium without inhibitory peptide. Three days after infection the cells were lysed, and infectivity was quantitated using the Galacto-Light Plus™ chemiluminescence reporter assay kit (Tropix, Bedford, Mass.) as recommended by the manufacturer. All infections were performed in quintuplicate.

First: CC[C@H](C)[C@H](NC(=O)[C@@H]1CCCN1C(=O)[C@@H](NC(=O)[C@H](C)NC(=O)[C@H](CCC(=O)O)NC(=O)[C@@H](N)CC(C)C)[C@@H](C)CC)C(=O)N[C@@H](CO)C(=O)N[C@H](C(=O)N1CCC[C@H]1C(=O)N1CCC[C@@H]1C(=O)N[C@@H](CCC(=O)O)C(=O)N[C@H](C(=O)N1Cc2ccccc2C[C@@H]1C(=O)N[C@@H](Cc1ccccc1)C(=O)N[C@@H](CC(N)=O)C(=O)N[C@@H](CCCCN)C(=O)N1CCC[C@H]1C(=O)N[C@@H](Cc1ccccc1)C(=O)N[C@H](C(=O)N[C@@H](Cc1ccccc1)C(=O)O)C(C)C)C(C)C)[C@@H](C)CC [VIR-445, LEAIPISIPpEV(D-Tic)FNKPFVF] (H-LEAIPISIP[dP]EV[dTic]FNKPFVF-OH)
Second: CC[C@H](C)[C@H](NC(=O)[C@@H]1CCCN1C(=O)[C@@H](NC(=O)[C@H](CC(=O)O)NC(=O)[C@H](CCC(=O)O)NC(=O)[C@@H](N)CC(C)C)[C@@H](C)CC)C(=O)NCC(=O)N[C@H](C(=O)N1CCC[C@H]1C(=O)N1CCC[C@@H]1C(=O)N[C@@H](CCC(=O)O)C(=O)N[C@@H](Cc1ccccc1)C(=O)N[C@@H](CC(C)C)C(=O)N[C@@H](Cc1ccccc1)C(=O)N[C@@H](CC(N)=O)C(=O)N[C@@H](CCCCN)C(=O)N1CCC[C@H]1C(=O)N[C@@H](Cc1ccccc1)C(=O)N[C@H](C(=O)N[C@@H](Cc1ccccc1)C(=O)O)C(C)C)[C@@H](C)CC [VIR-479, LEDIPIGIPpEFLFNKPFVF] (H-LEDIPIGIP[dP]EFLFNKPFVF-OH)
The IC50 of the first is 2.1-fold lower: 224 nM for the first, 479 nM for the second. The first is the more potent here.

`CC[C@H](C)[C@H](NC(=O)[C@H](C)NC(=O)[C@H](CCC(=O)O)NC(=O)[C@@H](N)CC(C)C)C(=O)N1CCC[C@H]1C(=O)N[C@@H](CCSC)C(=O)N[C@@H](CO)C(=O)N[C@H](C(=O)N1CCC[C@H]1C(=O)N1CCC[C@@H]1C(=O)N[C@@H](CCC(=O)O)C(=O)N[C@@H](Cc1ccccc1)C(=O)N[C@@H](CC(C)C)C(=O)N[C@@H](Cc1ccccc1)C(=O)NCC(=O)N[C@@H](CCCCN)C(=O)N1CCC[C@H]1C(=O)N[C@@H](CCC(=O)O)C(=O)N[C@@H](Cc1ccccc1)C(=O)N[C@H](C(=O)N[C@@H](Cc1ccccc1)C(=O)O)C(C)C)[C@@H](C)CC` [VIR-384, LEAIPMSIPpEFLFGKPEFVF] (H-LEAIPMSIP[dP]EFLFGKPEFVF-OH) and `CC[C@H](C)[C@H](NC(=O)[C@H](C)NC(=O)[C@H](CCC(=O)O)NC(=O)[C@@H](N)CC(C)C)C(=O)N1CCC[C@H]1C(=O)N[C@@H](CCSC)C(=O)NCC(=O)N[C@H](C(=O)N1CCC[C@H]1C(=O)N1CCC[C@@H]1C(=O)N[C@@H](CCC(=O)O)C(=O)N[C@H](C(=O)N[C@@H](Cc1ccccc1)C(=O)N[C@@H](Cc1ccccc1)C(=O)N[C@@H](CC(N)=O)C(=O)N[C@@H](CCCCN)C(=O)N1CCC[C@H]1C(=O)N[C@@H](Cc1ccccc1)C(=O)N[C@H](C(=O)N[C@@H](Cc1ccccc1)C(=O)O)C(C)C)C(C)C)[C@@H](C)CC` [VIR-322, LEAIPMGIPpEVFFNKPFVF] (H-LEAIPMGIP[dP]EVFFNKPFVF-OH) are within 1.5-fold of each other in IC50: 622 nM for the first, 836 nM for the second.

Compared with `CC[C@H](C)[C@H](NC(=O)[C@H](C)NC(=O)[C@H](CCC(=O)O)NC(=O)[C@@H](N)CC(C)C)C(=O)N1CCC[C@H]1C(=O)N[C@H]1CSSC[C@@H](C(=O)N[C@@H](Cc2ccccc2)C(=O)N[C@@H](C)C(=O)N[C@@H](Cc2ccccc2)C(=O)N[C@@H](CC(N)=O)C(=O)N[C@@H](CCCCN)C(=O)N[C@@H](CC(=O)O)C(=O)N[C@@H](Cc2ccccc2)C(=O)N[C@H](C(=O)N[C@@H](Cc2ccccc2)C(=O)O)C(C)C)NC(=O)[C@@H]2CCCN2C(=O)[C@@H]2CCCN2C(=O)[C@H]([C@@H](C)CC)NC(=O)[C@H](CO)NC1=O` [VIR-356] (H-LEAIPCSIPPCFAFNKDFVF-OH; disulfide 6-11), H-LEAIPISIPPEVFFGKPFVF-OH [VIR-284] is 2.5-fold lower in IC50: 700 nM for the first, 281 nM for the second. The second is the more potent here.

`CC[C@H](C)[C@H](NC(=O)[C@@H]1CCCN1C(=O)[C@@H](NC(=O)[C@H](C)NC(=O)[C@H](CCC(=O)O)NC(=O)[C@@H](N)CC(C)C)[C@@H](C)CC)C(=O)N[C@@H](CO)C(=O)N[C@H](C(=O)N1CCC[C@H]1C(=O)N1CCC[C@@H]1C(=O)N[C@@H](CCC(=O)O)C(=O)N[C@H](C(=O)N[C@@H](Cc1c[nH]c2ccccc12)C(=O)N[C@@H](Cc1ccccc1)C(=O)N[C@@H](CC(N)=O)C(=O)N[C@@H](CCCCN)C(=O)N1CCC[C@H]1C(=O)N[C@@H](Cc1ccccc1)C(=O)N[C@H](C(=O)N[C@@H](Cc1ccccc1)C(=O)O)C(C)C)C(C)C)[C@@H](C)CC` [VIR-298, LEAIPISIPpEVWFNKPFVF] (H-LEAIPISIP[dP]EVWFNKPFVF-OH) and `CC[C@H](C)[C@H](NC(=O)[C@@H]1CCCN1C(=O)[C@@H](NC(=O)[C@H](CCCCN)NC(=O)[C@H](CCC(=O)O)NC(=O)[C@@H](N)CC(C)C)[C@@H](C)CC)C(=O)NCC(=O)N[C@H](C(=O)N1CCC[C@H]1C(=O)N1CCC[C@@H]1C(=O)N[C@@H](CCC(=O)O)C(=O)N[C@H](C(=O)N[C@@H](C)C(=O)N[C@@H](Cc1ccccc1)C(=O)N[C@@H](CC(N)=O)C(=O)N[C@@H](CCCCN)C(=O)N1Cc2ccccc2C[C@H]1C(=O)N[C@@H](Cc1ccccc1)C(=O)N[C@H](C(=O)N[C@@H](Cc1ccccc1)C(=O)O)C(C)C)C(C)C)[C@@H](C)CC` [VIR-485, LEKIPIGIPpEVAFNK(L-Tic)FVF] (H-LEKIPIGIP[dP]EVAFNK[Tic]FVF-OH) are within 1.5-fold of each other in IC50: 969 nM for the first, 760 nM for the second.

Compared with `CC[C@H](C)[C@H](NC(=O)[C@H](C)NC(=O)[C@H](CCC(=O)O)NC(=O)[C@@H](N)CC(C)C)C(=O)N1CCC[C@H]1C(=O)N[C@@H](CCSC)C(=O)N[C@@H](CO)C(=O)N[C@H](C(=O)N1CCC[C@H]1C(=O)N1CCC[C@@H]1C(=O)N[C@@H](CCC(=O)O)C(=O)N[C@@H](Cc1ccccc1)C(=O)N[C@@H](CC(C)C)C(=O)N[C@@H](Cc1ccccc1)C(=O)NCC(=O)N[C@@H](CCCCN)C(=O)N1CCC[C@H]1C(=O)N[C@@H](Cc1ccccc1)C(=O)N[C@@H](Cc1ccccc1)C(=O)N[C@H](C(=O)N[C@@H](Cc1ccccc1)C(=O)O)C(C)C)[C@@H](C)CC` [VIR-380, LEAIPMSIPpEFLFGKPFFVF] (H-LEAIPMSIP[dP]EFLFGKPFFVF-OH), `CC[C@H](C)[C@H](NC(=O)[C@H](C)NC(=O)[C@H](CCC(=O)O)NC(=O)[C@@H](N)CC(C)C)C(=O)N1CCC[C@H]1C(=O)N[C@@H](CS)C(=O)N[C@@H](CO)C(=O)N[C@H](C(=O)N1CCC[C@H]1C(=O)N1CCC[C@@H]1C(=O)N[C@@H](CS)C(=O)N[C@H](C(=O)N[C@@H](Cc1ccccc1)C(=O)N[C@@H](Cc1ccccc1)C(=O)NCC(=O)N[C@@H](CCCCN)C(=O)N1CCC[C@H]1C(=O)N[C@@H](Cc1ccccc1)C(=O)N[C@H](C(=O)N[C@@H](Cc1ccccc1)C(=O)O)C(C)C)C(C)C)[C@@H](C)CC` [VIR-350, LEAIPCSIPpCVFFGKPFVF] (H-LEAIPCSIP[dP]CVFFGKPFVF-OH) is 2.7-fold lower in IC50: 540 nM for the first, 198 nM for the second.

`CC[C@H](C)[C@H](NC(=O)[C@H](C)NC(=O)[C@H](CCC(=O)O)NC(=O)[C@@H](N)CC(C)C)C(=O)N1CCC[C@H]1C(=O)N[C@@H](CCSC)C(=O)NCC(=O)N[C@H](C(=O)N1CCC[C@H]1C(=O)N1CCC[C@@H]1C(=O)N[C@@H](CCC(=O)O)C(=O)N[C@H](C(=O)N[C@@H](Cc1c[nH]c2ccccc12)C(=O)N[C@@H](Cc1ccccc1)C(=O)N[C@@H](CC(N)=O)C(=O)N[C@@H](CCCCN)C(=O)N1CCC[C@H]1C(=O)N[C@@H](Cc1ccccc1)C(=O)N[C@H](C(=O)N[C@@H](Cc1ccccc1)C(=O)O)C(C)C)C(C)C)[C@@H](C)CC` [VIR-328, LEAIPMGIPpEVWFNKPFVF] (H-LEAIPMGIP[dP]EVWFNKPFVF-OH) and `CC[C@H](C)[C@H](NC(=O)[C@H](C)NC(=O)[C@H](CCC(=O)O)NC(=O)[C@@H](N)CC(C)C)C(=O)N1CCC[C@H]1C(=O)N[C@@H](CCSC)C(=O)N[C@@H](CO)C(=O)N[C@@H](C)C(=O)N1CCC[C@H]1C(=O)N1CCC[C@@H]1C(=O)N[C@@H](CCC(=O)O)C(=O)N[C@@H](Cc1ccccc1)C(=O)N[C@@H](CC(C)C)C(=O)N[C@@H](Cc1ccccc1)C(=O)NCC(=O)N[C@@H](CCCCN)C(=O)N1CCC[C@H]1C(=O)N[C@@H](Cc1ccccc1)C(=O)N[C@H](C(=O)N[C@@H](Cc1ccccc1)C(=O)O)C(C)C` [VIR-396, LEAIPMSAPpEFLFGKPFVF] (H-LEAIPMSAP[dP]EFLFGKPFVF-OH) are within 1.5-fold of each other in IC50: 685 nM for the first, 628 nM for the second.

Compared with LEAIPMKIPPEFLFGKPFVF [VIR-590], `CC[C@H](C)[C@H](NC(=O)[C@H](C)NC(=O)[C@H](CCC(=O)O)NC(=O)[C@@H](N)CC(C)C)C(=O)N1CCC[C@H]1C(=O)N[C@@H](CCSC)C(=O)NCC(=O)N[C@H](C(=O)N1CCC[C@H]1C(=O)N1CCC[C@@H]1C(=O)N[C@@H](CCC(=O)O)C(=O)N[C@@H](Cc1ccccc1)C(=O)N[C@@H](CC(C)C)C(=O)N[C@@H](Cc1ccccc1)C(=O)N[C@@H](CC(N)=O)C(=O)N[C@@H](CCCCN)C(=O)N1CCC[C@H]1C(=O)N[C@@H](Cc1ccccc1)C(=O)N[C@H](C(=O)N[C@@H](Cc1ccccc1)C(=O)O)C(C)C)[C@@H](C)CC` [VIR-323, LEAIPMGIPpEFLFNKPFVF] (H-LEAIPMGIP[dP]EFLFNKPFVF-OH) is 2.7-fold higher in IC50: 343 nM for the first, 924 nM for the second. The first is the more potent here.
